Test results from patent US20230219921A1, “KCNT1 INHIBITORS AND METHODS OF USE” (Praxis Precision Medicines, Inc., priority 2020, published 2023).

Target: T1, KCNT1 (KNa1.1, Slack) (Homo sapiens, UniProt Q5JUK3)
T1 construct: expressed in transfected cells; host or cells: HEK-TREX (tetracycline-inducible HEK cell line)
T1 sequence (Q5JUK3 1-1230): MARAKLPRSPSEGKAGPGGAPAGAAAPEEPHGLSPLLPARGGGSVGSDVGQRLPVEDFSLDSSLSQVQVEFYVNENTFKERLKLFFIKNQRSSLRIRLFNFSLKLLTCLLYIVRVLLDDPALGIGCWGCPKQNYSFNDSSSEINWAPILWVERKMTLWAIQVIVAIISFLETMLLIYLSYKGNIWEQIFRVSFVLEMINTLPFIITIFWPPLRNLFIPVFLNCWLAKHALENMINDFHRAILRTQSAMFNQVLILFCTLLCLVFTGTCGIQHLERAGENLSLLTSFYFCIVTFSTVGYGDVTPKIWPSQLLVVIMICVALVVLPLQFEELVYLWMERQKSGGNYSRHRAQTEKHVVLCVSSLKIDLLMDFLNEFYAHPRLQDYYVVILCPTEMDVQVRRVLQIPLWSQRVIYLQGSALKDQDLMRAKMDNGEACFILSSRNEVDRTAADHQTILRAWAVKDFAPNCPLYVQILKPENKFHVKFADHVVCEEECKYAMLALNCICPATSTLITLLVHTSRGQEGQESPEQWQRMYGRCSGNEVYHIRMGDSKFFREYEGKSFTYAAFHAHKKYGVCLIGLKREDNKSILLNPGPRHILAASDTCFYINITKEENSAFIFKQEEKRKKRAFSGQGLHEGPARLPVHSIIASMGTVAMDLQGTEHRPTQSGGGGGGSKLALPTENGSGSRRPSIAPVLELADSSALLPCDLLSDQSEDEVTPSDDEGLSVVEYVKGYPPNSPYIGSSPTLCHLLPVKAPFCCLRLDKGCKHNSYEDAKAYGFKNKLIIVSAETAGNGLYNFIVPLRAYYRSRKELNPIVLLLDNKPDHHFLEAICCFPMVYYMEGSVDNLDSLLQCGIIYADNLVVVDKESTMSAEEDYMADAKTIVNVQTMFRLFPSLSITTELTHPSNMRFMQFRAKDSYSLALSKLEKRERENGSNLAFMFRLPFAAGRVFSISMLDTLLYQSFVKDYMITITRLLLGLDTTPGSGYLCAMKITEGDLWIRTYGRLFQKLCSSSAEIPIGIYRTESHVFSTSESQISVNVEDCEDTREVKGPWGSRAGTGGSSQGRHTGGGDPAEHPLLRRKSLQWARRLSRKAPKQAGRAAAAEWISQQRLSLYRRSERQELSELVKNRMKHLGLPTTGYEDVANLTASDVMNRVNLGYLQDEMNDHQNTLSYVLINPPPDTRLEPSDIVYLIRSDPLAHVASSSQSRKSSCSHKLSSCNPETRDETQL
Test: KCNT1 patch clamp assay (SyncroPatch 384PE automated patch clamp)
Assay type: cell-based
Conditions: tetracycline inducible cell line (HEK-TREX); perforated patch mode; step from -80 mV to 0 mV; room temperature; read-out: KCNT1-WT IC50
Description: Inhibition of KCNT1 (KNa1.1, Slack) was evaluated using a tetracycline inducible cell line (HEK-TREX). Currents were recorded using the SyncroPatch 384PE automated, patch clamp system. Pulse generation and data collection were performed with PatchController384 V1.3.0 and DataController384 V1.2.1 (Nanion Technologies). The access resistance and apparent membrane capacitance were estimated using built-in protocols. Current were recorded in perforated patch mode (10 μM escin) from a population of cells. The cells were lifted, triturated, and resuspended at 800,000 cells/ml. The cells were allowed to recover in the cell hotel prior to experimentation. Currents were recorded at room temperature. The external solution contained the following (in mM): NaCl 105, NMDG 40, KCl 4, MgCl2 1, CaCl2 5 and HEPES 10 (pH=7.4, Osmolarity ˜300 mOsm). The extracellular solution was used as the wash, reference and compound delivery solution. The internal solution contained the following (in mM): NaCl 70, KF 70, KCl 10, EGTA 5, HEPES 5 and Escin 0.01 (pH=7.2, Osmolarity ˜295 mOsm). Escin is made at a 5 mM stock in water, aliquoted, and stored at −20° C. The compound plate was created at 2× concentrated in the extracellular solution. The compound was diluted to 1:2 when added to the recording well. The amount of DMSO in the extracellular solution was held constant at the level used for the highest tested concentration. A holding potential of −80 mV with a 100 ms step to 0 mV was used. Mean current was measured during the step to 0 mV. […] The average mean current from 3 sweeps was calculated and the % inhibition of each compound was calculated. The % Inhibition as a function of the compound concentration was fit with a Hill equation to derive IC50, slope, min and max parameters. If KCNT1 inhibition was less than 50% at the highest tested concentration or if an IC50 could not be calculated, then a percent inhibition was reported in place of the IC50.
In this table, “A” indicates IC50 of less than or equal to 1 μM; “B” indicates inhibition of between 1 μM to 20 μM; and “C” indicates inhibition of greater than or equal to 20 μM.

SMILES | IC50 [nM]
CNS(=O)(=O)c1ccc(C(=O)N[C@H](C)c2ccc(Cl)cc2Cl)s1 [Compound 1, (R)—N-(1-(2,4-dichlorophenyl)ethyl)-5-(N-methylsulfamoyl)thiophene-2-carboxamide] | 1000 to 20000
CNS(=O)(=O)c1ccc(C(=O)N[C@@H](C)c2ccc(Cl)cc2Cl)s1 [Compound 2, (S)—N-(1-(2,4-dichlorophenyl)ethyl)-5-(N-methylsulfamoyl)thiophene-2-carboxamide] | ≤ 1000
CNS(=O)(=O)c1ccc(C(=O)NCc2ccc(Cl)cc2Cl)s1 [Compound 3, N-(2,4-dichlorobenzyl)-5-(N-methylsulfamoyl)thiophene-2-carboxamide] | ≤ 1000
CNS(=O)(=O)c1ccc(C(=O)N[C@H](C)c2ccc(Cl)cc2)s1 [Compound 4, (R)—N-(1-(4-chlorophenyl)ethyl)-5-(N-methylsulfamoyl)thiophene-2-carboxamide] | ≤ 1000
CNS(=O)(=O)c1ccc(C(=O)N[C@@H](C)c2ccc(Cl)cc2)s1 [Compound 5, (S)—N-(1-(4-chlorophenyl)ethyl)-5-(N-methylsulfamoyl)thiophene-2-carboxamide] | ≤ 1000
CS(=O)(=O)c1ccc(C(=O)NCc2ccc(Cl)cc2Cl)s1 [Compound 6, N-(2,4-dichlorobenzyl)-5-(methylsulfonyl)thiophene-2-carboxamide] | ≤ 1000
CNS(=O)(=O)c1ccc(C(=O)NCc2ccc(Cl)cc2)s1 [Compound 7, N-(4-chlorobenzyl)-5-(N-methylsulfamoyl)thiophene-2-carboxamide] | ≤ 1000
CNS(=O)(=O)c1ccc(C(=O)NCc2ccc(Cl)cc2C(F)(F)F)s1 [Compound 8, N-(4-chloro-2-(trifluoromethyl)benzyl)-5-(N-methylsulfamoyl)thiophene-2-carboxamide] | ≤ 1000
CNS(=O)(=O)c1ccc(C(=O)NCc2ccc(Cl)cc2C)s1 [Compound 9, N-(4-chloro-2-methylbenzyl)-5-(N-methylsulfamoyl)thiophene-2-carboxamide] | ≤ 1000
CNS(=O)(=O)c1ccc(C(=O)NCc2ccc(Cl)cc2F)s1 [Compound 10, N-(4-chloro-2-fluorobenzyl)-5-(N-methylsulfamoyl)thiophene-2-carboxamide] | ≤ 1000
CNS(=O)(=O)c1ccc(C(=O)NCc2ccc(Cl)cc2Br)s1 [Compound 11, N-(2-bromo-4-chlorobenzyl)-5-(N-methylsulfamoyl)thiophene-2-carboxamide] | ≤ 1000
CNS(=O)(=O)c1ccc(C(=O)NCc2ccc(Cl)cc2C2CC2)s1 [Compound 12, N-(4-chloro-2-cyclopropylbenzyl)-5-(N-methylsulfamoyl)thiophene-2-carboxamide] | ≤ 1000
CNS(=O)(=O)c1ccc(C(=O)NCc2ccc(Cl)cc2OC)s1 [Compound 13, N-(4-chloro-2-methoxybenzyl)-5-(N-methylsulfamoyl)thiophene-2-carboxamide] | ≤ 1000
CNS(=O)(=O)c1ccc(C(=O)NCc2ccc(Cl)cc2O)s1 [Compound 14, N-(4-chloro-2-hydroxybenzyl)-5-(N-methylsulfamoyl)thiophene-2-carboxamide] | ≤ 1000
O=C(NCc1ccc(Cl)cc1Cl)c1ccc(S(=O)(=O)C2CC2)s1 [Compound 15, 5-(Cyclopropylsulfonyl)-N-(2,4-dichlorobenzyl)thiophene-2-carboxamide] | ≤ 1000
CCS(=O)(=O)c1ccc(C(=O)NCc2ccc(Cl)cc2Cl)s1 [Compound 16, N-(2,4-dichlorobenzyl)-5-(ethylsulfonyl)thiophene-2-carboxamide] | ≤ 1000

SMILES | IC50 [nM]
CNS(=O)(=O)c1ccc(C(=O)NCc2ccc(C#N)cc2)s1 [Compound 17, N-(4-cyanobenzyl)-5-(N-methylsulfamoyl)thiophene-2-carboxamide] | 1000 to 20000
CNS(=O)(=O)c1ccc(C(=O)NCc2cccc(Cl)c2)s1 [Compound 18, N-(3-chlorobenzyl)-5-(N-methylsulfamoyl)thiophene-2-carboxamide] | ≤ 1000
CNS(=O)(=O)c1ccc(C(=O)NCc2ccc(C(C)C)cc2)s1 [Compound 19, N-(4-isopropylbenzyl)-5-(N-methylsulfamoyl)thiophene-2-carboxamide] | ≤ 1000
CNS(=O)(=O)c1ccc(C(=O)NCc2ccc(Cl)c(F)c2)s1 [Compound 20, N-(4-chloro-3-fluorobenzyl)-5-(N-methylsulfamoyl)thiophene-2-carboxamide] | ≤ 1000
CNS(=O)(=O)c1ccc(C(=O)NCc2ccc(Br)cc2)s1 [Compound 21, N-(4-bromobenzyl)-5-(N-methylsulfamoyl)thiophene-2-carboxamide] | ≤ 1000
CNS(=O)(=O)c1ccc(C(=O)NCc2ccc(C)cc2)s1 [Compound 22, N-(4-methylbenzyl)-5-(N-methylsulfamoyl)thiophene-2-carboxamide] | ≤ 1000
CS(=O)(=O)c1ccc(C(=O)NCc2ccc(N3CCCC3)cc2)s1 [Compound 23, 5-(methylsulfonyl)-N-(4-(pyrrolidin-1-yl)benzyl)thiophene-2-carboxamide] | ≥ 20000
CC(C)c1ccc(CNC(=O)c2ccc(S(C)(=O)=O)s2)cc1 [Compound 24, N-(4-isopropylbenzyl)-5-(methylsulfonyl)thiophene-2-carboxamide] | ≤ 1000
CC(C)Oc1ccc(CNC(=O)c2ccc(S(C)(=O)=O)s2)cc1 [Compound 25, N-(4-isopropoxybenzyl)-5-(methylsulfonyl)thiophene-2-carboxamide] | ≥ 20000
CNS(=O)(=O)c1ccc(C(=O)NCc2ccc(C3CC3)cc2)s1 [Compound 26, N-(4-cyclopropylbenzyl)-5-(N-methylsulfamoyl)thiophene-2-carboxamide] | ≤ 1000
CNS(=O)(=O)c1ccc(C(=O)NCc2ccc(OC(C)C)cc2)s1 [Compound 27, N-(4-isopropoxybenzyl)-5-(N-methylsulfamoyl)thiophene-2-carboxamide] | ≥ 20000
CNS(=O)(=O)c1ccc(C(=O)NCc2ccc(C(C)(C)C)cc2)s1 [Compound 28, N-(4-(tert-butyl)benzyl)-5-(N-methylsulfamoyl)thiophene-2-carboxamide] | ≤ 1000
CNS(=O)(=O)c1ccc(C(=O)NCc2ccc(C(F)(F)F)cc2)s1 [Compound 29, 5-(N-methylsulfamoyl)-N-(4-(trifluoromethyl)benzyl)thiophene-2-carboxamide] | ≤ 1000
CNS(=O)(=O)c1ccc(C(=O)NCc2ccc(N3CCCC3)cc2)s1 [Compound 30, 5-(N-methylsulfamoyl)-N-(4-(pyrrolidin-1-yl)benzyl)thiophene-2-carboxamide] | ≥ 20000
CS(=O)(=O)c1ccc(C(=O)NCc2ccc(C3CC3)cc2)s1 [Compound 31, N-(4-cyclopropylbenzyl)-5-(methylsulfonyl)thiophene-2-carboxamide] | ≤ 1000
